Measurements reported in patent publication US20020137715A1, “Blocking Sp1 transcription factor broadly inhibits extracellular matrix gene expression in vitro and in vivo: implications for the treatment of tissue fibrosis” (priority 2001, published 2002).

Assays:
human dermal fibroblasts = assay type: cell-based
COL7A1 promoter = experiment: Decoy oligonucleotides on COL7A1 promoter activity; assay type: cell-based, human; settings: compared with COL1A2 promoter
COL1A2 promoter = experiment: Decoy oligonucleotides on COL1A2/CAT promoter activity in dermal fibroblasts (FIG. 5A); assay type: cell-based, human; settings: −3500COL1A2/CAT, 24 h; for decrease of COL1A2 promoter activity: various amounts added to culture medium
Experimental: (§1) FIG. 5. Decoy Sp1 oligonucleotides inhibit COL1A2 promoter activity in vitro and in vivo. A, Confluent human dermal fibroblast cultures are transfected with 5 μg of −500COL1A2/CAT reporter gene construct. After glycerol shock, increasing amounts (2, 5, 10 μg) of Sp1 (open bars) or mSp1 (hatched bars) oligonucleotides are added to the culture medium. Forty hours later, CAT activity is determined and compared to that of cultures without oligonucleotides (closed bar). Relative promoter activity (mean±SD) of three separate experiments performed in duplicate is presented. B, Four transgenic mice carrying 17 kb of mouse COL1A2 promoter linked to the luciferase gene in their genome are injected subcutaneously at distant sites (approx. 2 cm apart) with 15 μg of either Sp1 (open bar) or mSp1 (hatched bar) oligonucleotides in 25 μl of H2O. After a 30-hr incubation, animals are sacrified and luciferase activity is determined in the skin surrounding the injection sites using identical amounts of protein extracts (40 μg). A non-injected skin area is used as control (solid bar).
Transient cell transfection and CAT assays. Transient cell transfections are performed with the calcium phosphate/DNA co-precipitation procedure. CAT activity is measured using [^14C]chloramphenicol as substrate (Gorman et al, Mol Cell Biol 2: 1044-1051, 1982) followed by thin layer chromatography and quantitation with a phosphorimager.
Decoy oligonucleotides. In some in vitro experiments decoy double-stranded oligonucleotides are used in an attempt to interfere with Sp1 binding to its cognate cis-elements within the COL1A2 promoter. […] 24 h later, CAT activity, representing promoter activity, is determined.
Decoy Sp1 oligonucleotides inhibit COL1A2 promoter activity in vitro and in vivo. Since Sp1 is fundamental for high expression of several ECM genes, short oligonucleotides bearing a consensus Sp1 binding sequence are analyzed for their efficacy as decoys to decrease collagen promoter activity. […] Promoter activity is determined 24 h later. […]

mouse COL1A2 promoter = experiment: Decoy oligonucleotides in COL1A2/luciferase transgenic mice (FIG. 5B); assay type: in vivo; settings: 15 μg intradermally; COL1A2/lux transgenic mice; 24 hours; vs control skin
Experimental: as §1, with “B, Four transgenic mice carrying 17 kb of mouse COL1A2 promoter linked to the luciferase gene in their genome are injected subcutaneously at distant sites (approx. 2 cm apart) with 15 μg of either Sp1 (open bar) or mSp1 (hatched bar) oligonucleotides in 25 μl of H2O.” left out, “A non-injected skin area is used as control (solid bar).” left out
Treatment of transgenic mice. […] Luciferase activity using identical amounts of extracted proteins is determined with a commercial assay kit (Promega).
Next, decoy Sp1 experiments are performed in a transgenic mouse model in which 17 kb of the mouse COL1A2 promoter drives the expression of the luciferase gene. […] Luciferase activity is determined 24 hours later in the skin region surrounding the injections. […]

Sp1 = Sp1 (Homo sapiens, UniProt P08047); experiment: EMSA binding of Sp1 to oligonucleotide; settings: EMSA experiments
Experimental: Electrophoresis mobility shift assays (EMSA). A 22-mer consensus Sp1 oligonucleotide 5′-[…]-3′ was used as a probe to determine Sp1/DNA interactions. For supershift experiments, nuclear extracts (5 μg) are incubated for 2 h on ice with an anti-Sp1 antibody (Santa Cruz Biotechnologies, Santa Cruz, Calif.) prior to the binding reactions. Binding mixtures are separated electrophoretically on native 4% acrylamide gels, as described previously (Vindevoghel et al, 1997).
Decoy Sp1 oligonucleotides inhibit COL1A2 promoter activity in vitro and in vivo. Since Sp1 is fundamental for high expression of several ECM genes, short oligonucleotides bearing a consensus Sp1 binding sequence are analyzed for their efficacy as decoys to decrease collagen promoter activity. For this purpose. two approaches are used. First, human dermal fibroblasts are transfected with the −3500COL1A2/CAT construct, and various amounts of either wild-type or mutant Sp1 double-stranded oligonucleotides (SEQ. ID. NO:2 and SEQ. ID. NO: 3. respectively) are added to the culture medium. Promoter activity is determined 24 h later. […] Maximal inhibition (55%) is observed with addition of […] of Sp1 oligonucleotide.

Sequence of Sp1 (P08047 whole entry): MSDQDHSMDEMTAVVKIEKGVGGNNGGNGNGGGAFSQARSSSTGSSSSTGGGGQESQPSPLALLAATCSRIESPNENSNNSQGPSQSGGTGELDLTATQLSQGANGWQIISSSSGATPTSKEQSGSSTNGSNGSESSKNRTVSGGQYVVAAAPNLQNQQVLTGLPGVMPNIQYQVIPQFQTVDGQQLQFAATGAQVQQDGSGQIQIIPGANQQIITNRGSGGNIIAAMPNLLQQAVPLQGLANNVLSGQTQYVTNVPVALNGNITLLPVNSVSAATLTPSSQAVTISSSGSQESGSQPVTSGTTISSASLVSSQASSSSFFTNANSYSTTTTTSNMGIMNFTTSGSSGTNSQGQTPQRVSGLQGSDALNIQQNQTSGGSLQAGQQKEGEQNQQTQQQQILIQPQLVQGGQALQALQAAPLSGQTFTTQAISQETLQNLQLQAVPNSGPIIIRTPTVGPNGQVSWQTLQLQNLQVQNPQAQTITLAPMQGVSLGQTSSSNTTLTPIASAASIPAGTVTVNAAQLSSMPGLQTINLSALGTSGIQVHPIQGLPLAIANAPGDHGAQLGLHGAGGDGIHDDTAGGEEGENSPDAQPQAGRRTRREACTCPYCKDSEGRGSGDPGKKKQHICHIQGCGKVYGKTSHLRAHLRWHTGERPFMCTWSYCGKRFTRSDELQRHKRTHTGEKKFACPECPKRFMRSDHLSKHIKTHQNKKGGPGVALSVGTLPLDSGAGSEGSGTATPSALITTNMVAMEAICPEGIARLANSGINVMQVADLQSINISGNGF

Row | Substance | cellular toxicity (human dermal fibroblasts) | inhibition of COL7A1 promoter (COL7A1 promoter) | Maximal inhibition of COL1A2 promoter activity (COL1A2 promoter; 15 μg/plate) [%] | decrease of COL1A2 promoter activity (COL1A2 promoter) | reduction of COL1A2 promoter activity (luciferase activity in skin) (mouse COL1A2 promoter) | binding of Sp1 to the oligonucleotide's Sp1 binding site (Sp1)
1 | Sp1 oligonucleotide: 22-mer consensus Sp1 double-stranded decoy oligonucleotide, 5′-ATTCGATCGGGGCGGGGCGAGC-3′ (double-stranded, further chemistry not given here) | No cellular toxicity | equally inhibited | 55 | efficiently decreases COL1A2 promoter activity in a dose-dependent manner | about 70% | –
2 | mSp1: mutant double-stranded oligonucleotide used as a control, 5′-ATTCGATCGTAGCGATGCGAGC-3′ (double-stranded, further chemistry not given here) [reference compound] | No cellular toxicity | – | – | not | no effect | incapable of binding Sp1
